Source: publication PMC12291850, “Morin Flavonoid Interaction with Albumin and Its Nanoparticle Conjugation: An Efficient Antioxidant Vehicle for Nutraceuticals” (Antioxidants, 2025)
pKd: −log10 of the molar value.

Experiments:
[1] = biological target: T1, bovine serum albumin (BSA) (Bos taurus, UniProt P02769); experiment: Fluorescence quenching of BSA by flavonoids (Stern–Volmer, binding equation, van't Hoff); settings: for Stern–Volmer quenching constant (Ksv): excitation 295 nm; for Kd: read-out: binding constant (Ka) (converted); for ΔG°: morin: 293–310 K
T1 construct: purchased Merck (Darmstadt, Germany)
Method: Fluorescence quenching spectroscopy was employed to investigate the interaction between bovine serum albumin (BSA) and selected flavonoids, including morin. All measurements were performed using a spectrofluorometer under controlled temperature conditions (25 °C).
To quantify the quenching effect upon encapsulation, the Stern–Volmer equation was applied (Equation (1)):F0/F = 1 + Ksv [Q](1) where F0 and F are the fluorescence intensities of BSA in the absence and presence of quencher (flavonoid), respectively, Ksv is the Stern–Volmer quenching constant, and [Q] is flavonoid concentration.
The binding constant (Ka) and the number of binding sites (n) were calculated using the logarithmic form of the binding equation (Equation (2)):log[(F0 − F)/F] = log Ka + n log[Q](2)
Thermodynamic parameters—Gibbs free energy change (ΔG°) (Equation (3)), enthalpy change (ΔH°), and entropy change (ΔS°)—were determined from the temperature dependence of the binding constant using the van’t Hoff equation (Equation (4)):ΔG° = ΔH° − TΔS°(3) ln Ka = −ΔH°/RT + ΔS°/R(4)

[2] = Encapsulation efficiency in BSA nanoparticles (desolvation, HPLC of supernatant); format: physicochemical; settings: unchanged when co-loaded with morin
[3] = cited from earlier work
[4] = biological target: T1, bovine serum albumin (BSA); experiment: Surface plasmon resonance (SPR) analysis of albumin–morin interaction; format: binding
Method: Gold-coated sensor chips were first cleaned and subsequently modified with a self-assembled monolayer (SAM) of 4-mercaptobenzoic acid (4-MBA) to introduce carboxyl functional groups on the sensor surface.
Non-reacted sites were blocked with 1 M ethanolamine (pH 8.5).
Sensorgrams were recorded in real time, and binding responses were referenced against control channels and buffer-only injections.
Equilibrium binding data were analyzed using Langmuir isotherm models to estimate the apparent association constant (Ka), dissociation constant (Kd), and maximum binding response (Rmax). Data fitting and kinetic analysis were performed using the instrument’s integrated software suite.

[5] = Photolysis and photooxidation (hydroxyl radical from H2O2 under UV 254 nm) of morin, HPLC-DAD; format: physicochemical
Method: Morin was incorporated into the system by adding small aliquots of a stock solution in ethanol, ensuring the final ethanol concentration remained below 2% (v/v) to avoid solvent-induced effects on photoreactivity. Oxidative conditions were simulated by the addition of hydrogen peroxide to a final concentration of 0.5% (w/v), serving as a source of hydroxyl radicals upon UV activation. Each reaction mixture was vortexed to ensure homogeneity and subsequently transferred into 5 mL double-jacketed quartz cuvettes. The outer surface of each cuvette was coated with opaque black paint to prevent ambient light interference, except for a centrally located circular window (1 cm diameter) designed to permit focused irradiation. A circulating water bath maintained the cuvette temperature at 20 ± 0.5 °C. Photolysis was carried out using a high-power mercury UV lamp emitting at 254 nm. […] Quantitative analysis of morin degradation and spectral changes associated with hydroxyl radical attack was performed using high-performance liquid chromatography with diode array detection (HPLC-DAD) and UV–visible spectrophotometry.
(§1) A high-performance liquid chromatography (HPLC) method was developed and validated to quantify morin for the subsequent evaluation of encapsulation efficiency, drug loading capacity, physicochemical stability, photodegradation under ultraviolet (UV) exposure, and hydroxyl radical scavenging activity. Chromatographic analyses were conducted using a Shimadzu LC-20AT HPLC system (Shimadzu, Kyoto, Japan), equipped with a SIL-20A autosampler and an SPD-M20A photodiode array (PDA) detector. Separation was achieved on a C18 ODS Hypersil column (250 mm × 4.6 mm, 5 μm particle size; Agilent Technologies, Santa Clara, CA, USA). The mobile phase consisted of acetonitrile and 0.1% trifluoroacetic acid in water (30:70, v/v), delivered under isocratic conditions at a flow rate of 1.0 mL/min. The injection volume was set at 20 μL. Morin detection was performed at a wavelength of 360 nm using the PDA detector. The method was optimized to ensure adequate peak resolution, retention time reproducibility, and sensitivity for low-concentration samples. This analytical approach was employed throughout the study to monitor morin concentration in various experimental settings, including nanoparticle formulations and stability assays.

[6] = biological target: T1, bovine serum albumin (BSA); experiment: Circular dichroism of BSA with morin under oxidative conditions; settings: morin 10 and 20 µM, UV irradiation and hydrogen peroxide
Method: Measurements were performed using a J-1500 CD spectropolarimeter (JASCO, Tokyo, Japan) equipped with a temperature-controlled cell holder maintained at 25 °C. Spectra were acquired using a 0.1 cm path length quartz cuvette. Each spectrum represents the average of three consecutive scans, recorded at a scanning speed of […] with a response time of 1 s. […] For oxidative conditions, hydrogen peroxide was added to a final concentration of 0.5% (w/v) to promote hydroxyl radical generation. All solutions were prepared in 10 mM phosphate buffer at pH 7.4 and allowed to equilibrate for 15 min before measurement. Spectra were corrected by subtracting the baseline of the corresponding buffer or hydrogen peroxide control solution.

[7] = Encapsulation efficiency in BSA nanoparticles (desolvation, HPLC of supernatant); format: physicochemical
Method: as §1
The impact of other antioxidant molecules (ellagic acid and tocopherol succinate) on the behavior of morin encapsulated in BSA nanoparticles in an intestinal environment was assessed through in vitro loading and release experiments. […] Then, ethanol was added dropwise under constant stirring, followed by the addition of 20 µL of an 8% glutaraldehyde solution [25]. The final volume of the mixture was adjusted to 10 mL. After 24 h, the nanoparticles were collected by centrifugation (13,500 rpm, 20 min, and 25 °C) and washed with water. The supernatant was separated for further analysis. To incorporate ellagic acid or tocopherol succinate, each compound—either individually or in combination—was included in the ethanol phase during the dropwise addition. The rest of the procedure remained unchanged. The encapsulation efficiency (%EE) was calculated using Equation (5):(5) %EE=Mi−Mf/Mi×100 where Mi and Mf correspond to the initial amount of morin added during the loading process and the free morin in the supernatant, respectively.

[8] = parameters: method as in doi:10.1039/C6RA20441D; settings: cited from earlier work
[9] = tested on: human serum albumin (HSA); settings: fluorescence studies; cited from earlier work
[10] = BSA fluorescence quenching, 25 °C
[11] = flavonoid–BSA complex, van't Hoff analysis
[12] = BSA nanoparticles prepared via desolvation

T1 sequence (P02769 25-607): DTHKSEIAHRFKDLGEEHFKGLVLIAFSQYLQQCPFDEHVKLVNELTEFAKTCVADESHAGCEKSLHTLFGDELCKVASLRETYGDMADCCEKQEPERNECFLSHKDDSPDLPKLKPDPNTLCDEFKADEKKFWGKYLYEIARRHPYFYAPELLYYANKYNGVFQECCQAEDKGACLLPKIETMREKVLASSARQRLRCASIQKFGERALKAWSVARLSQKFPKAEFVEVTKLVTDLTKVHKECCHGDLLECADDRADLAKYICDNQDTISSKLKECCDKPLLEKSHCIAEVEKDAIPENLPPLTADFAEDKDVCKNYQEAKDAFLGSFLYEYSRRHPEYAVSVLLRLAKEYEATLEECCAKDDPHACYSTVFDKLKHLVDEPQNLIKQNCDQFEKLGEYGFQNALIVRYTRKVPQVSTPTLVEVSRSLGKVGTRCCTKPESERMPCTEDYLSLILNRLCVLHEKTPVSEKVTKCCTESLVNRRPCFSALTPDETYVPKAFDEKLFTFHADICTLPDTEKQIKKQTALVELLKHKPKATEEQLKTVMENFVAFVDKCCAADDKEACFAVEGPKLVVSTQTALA

## O=c1c(O)c(-c2ccc(O)cc2)oc2cc(O)cc(O)c12 [kaempferol]
[1]; BSA fluorescence quenching
  number of binding sites (n): 1.33 ± 0.03
[1]; [10]
  bimolecular quenching rate constant (kq): 2.23 × 10^13 ± 0.02 L mol^−1 s^−1
  Stern–Volmer quenching constant (Ksv): 2.23 × 10^5 ± 0.03 L mol^−1
[1]
  Kd: 5.99 µM

## O=c1oc2cc(O)ccc2c2oc3cc(O)ccc3c12 [coumestrol]
[2]
  encapsulation efficiency of coumestrol: 22.4% ± 0.1%
[3]; previous studies
  encapsulation efficiency in BSA nanoparticles: 22.4% ± 0.1%

## O=c1c(-c2ccc(O)cc2)coc2cc(O[C@@H]3O[C@H](CO)[C@@H](O)[C@H](O)[C@H]3O)cc(O)c12 [genistin]
[1]; BSA fluorescence quenching
  number of binding sites (n): 0.94 ± 0.01
[1]; [10]
  bimolecular quenching rate constant (kq): 3.66 × 10^12 ± 0.04 L mol^−1 s^−1
  Stern–Volmer quenching constant (Ksv): 3.66 × 10^4 ± 0.05 L mol^−1
[1]; [11]
  ΔG°: –26.9 kJ·mol^−1
[1]
  Kd: 29.5 µM

## O=c1c(O)c(-c2ccc(O)c(O)c2)oc2cc(O)cc(O)c12 [quercetin]
[1]; BSA fluorescence quenching
  number of binding sites (n): 1.13 ± 0.02
[1]; [10]
  bimolecular quenching rate constant (kq): 1.88 × 10^13 ±0.03 L mol^−1 s^−1
  Stern–Volmer quenching constant (Ksv): 1.88 × 10^5 ± 0.02 L mol^−1

## O=c1c(O)c(-c2ccc(O)cc2O)oc2cc(O)cc(O)c12 [morin, 3,5,7,2′,4′-pentahydroxyflavone]
[1]
  pKd: 5.27
[1]; BSA fluorescence quenching
  number of binding sites (n): 1.10 ± 0.02
[1]; [10]
  bimolecular quenching rate constant (kq): 1.76 × 10^13 ± 0.02 L mol^−1 s^−1
  binding constant (Ka): 187000 L/mol
  Stern–Volmer quenching constant (Ksv): 1.76 × 10^5 ± 0.03 L mol^−1
[1]; [11]
  ΔH°: –28.7 kJ·mol^−1
  ΔS°: 4.75 J·mol^−1·K^−1
  ΔG°: approximately –30.1 kJ·mol^−1
[4]
  pKd: 3.55
[5]; UV exposure with hydrogen peroxide, 10 min, 2 µM BSA, pH 7.4
  initial morin concentration retained: 79%
[5]; UV exposure with hydrogen peroxide, 10 min, absence of BSA, pH 7.4
  morin concentration remaining: 61.5%
[5]; UV photolysis, 10 min, absence of BSA, phosphate buffer pH 7.4
  initial morin concentration remaining: 94.9%
[5]; photooxidation 10 min, 2 µM BSA
  improvement in morin retention compared to the system without BSA: 17.5%
[6]
  effect on BSA secondary structure (CD ellipticity at 208 and 222 nm): no significant loss of α-helical structure
[7]; BSA nanoparticles co-loaded with both ellagic acid and tocopherol succinate
  %EE of morin: 80%
[7]; BSA nanoparticles co-loaded with ellagic acid
  %EE of morin: 76%
[7]; BSA nanoparticles co-loaded with tocopherol succinate
  %EE of morin: 72.6%
[7]; encapsulated alone in BSA nanoparticles (comparison with coumestrol co-loading)
  %EE of morin: 20.5% ± 3.0%
[7]; initial [Morin] 0.128 mM
  %EE: 25.97 ± 4.29%
  Morin/BSA molar ratio: 0.30 ± 0.05
[7]; initial [Morin] 0.222 mM
  %EE: 20.42 ± 0.67%
  Morin/BSA molar ratio: 0.48 ± 0.02
[7]; initial [Morin] 0.308 mM
  %EE: 19.31 ± 0.42%
  Morin/BSA molar ratio: 0.68 ± 0.01
[7]; initial [Morin] 0.507 mM
  %EE: 20.99 ± 0.27%
  Morin/BSA molar ratio: 0.98 ± 0.01
[7]; initial [Morin] 0.634 mM
  Morin/BSA molar ratio: 1.01 ± 0.04
[7]; initial [Morin] 1.478 mM
  %EE: 18.94 ± 0.85%
  Morin/BSA molar ratio: 1.48 ± 0.07
[7]; morin in BSA nanoparticles prepared by desolvation
  encapsulation efficiencies (maximum): up to 26%
[8]; 72 h, pH 7.4
  extended release: up to 80%
[8]; stated for both this study (SIF) and the literature study (pH 7.4)
  initial 6 h release: < 40%

## O=c1c(O)c(-c2ccc(O)c(O)c2)oc2cc(O)ccc12 [fisetin]
[3]; [12]
  average particle size: 200 ± 8 nm
  encapsulation efficiency: 84%

## O=c1c(-c2ccc(O)cc2)coc2cc(O)cc(O)c12 [genistein]
[1]
  pKd: 4.94
[1]; BSA fluorescence quenching
  number of binding sites (n): 1.22 ± 0.04
[1]; [10]
  bimolecular quenching rate constant (kq): 8.11 × 10^12 ± 0.04 L mol^−1 s^−1
  Stern–Volmer quenching constant (Ksv): 8.11 × 10^4 ± 0.02 L mol^−1

## O=C(/C=C/c1ccc(O)c(O)c1)O[C@H](Cc1ccc(O)c(O)c1)C(=O)O [rosmarinic acid]
[9]
  association constant (K): ~10^7 M^−1
